Results published in ChEMBL document CHEMBL1201862, “PubChem BioAssay data set” (2004).
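Grown in 96-well plates, cells were treated for 48 hours with each compound at five concentrations. Insufficient inhibition: endpoint recorded as highest concentration tested. At the GI50, growth is halved.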 Calls of active or inactive are those of the source. Rule as the data show it: active = GI50 up to about 1.1 µM and inactive = higher.

What was measured:
Assay in all cases: DTP human tumour cell line panel, 48 h
SNB-19 = system: SNB-19
MCF7 = system: MCF7
NCI-H460 = system: NCI-H460
RPMI-8226 = system: RPMI-8226
CAKI-1 = system: CAKI-1
HOP-92 = system: HOP-92
UO-31 = system: UO-31
OVCAR-4 = system: OVCAR-4
HCT-15 = system: HCT-15
OVCAR-8 = system: OVCAR-8
KM12 = system: KM12
U-251 = system: U-251
A549 = system: A549
K562 = system: K562
HCT-116 = system: HCT-116
Hs-578T = system: Hs-578T
NCI/ADR-RES = system: NCI/ADR-RES
PC-3 = system: PC-3
SF-539 = system: SF-539
HCC 2998 = system: HCC 2998

| SMILES | GI50 (SNB-19) | GI50 (MCF7) | GI50 (NCI-H460) | GI50 (RPMI-8226) | GI50 (CAKI-1) | GI50 (HOP-92) | GI50 (UO-31) | GI50 (OVCAR-4) | GI50 (HCT-15) | GI50 (OVCAR-8) | GI50 (KM12) | GI50 (U-251) | GI50 (A549) | GI50 (K562) | GI50 (HCT-116) | GI50 (Hs-578T) | GI50 (NCI/ADR-RES) | GI50 (PC-3) | GI50 (SF-539) | GI50 (HCC 2998) |
| --- | --- | --- | --- | --- | --- | --- | --- | --- | --- | --- | --- | --- | --- | --- | --- | --- | --- | --- | --- | --- |
| CN(C)CCOc1ccc(-c2c(Oc3ccccc3)c(=O)oc3ccccc23)cc1 | 8.02 µM (inactive) | 4.66 µM (inactive) | 13.5 µM (inactive) | 14.1 µM (inactive) | 22.3 µM (inactive) | 17.2 µM (inactive) | 7.33 µM (inactive) | 27.2 µM (inactive) | 10.3 µM | 15.6 µM (inactive) | 21.4 µM (inactive) | 4.86 µM (inactive) | 4.15 µM (inactive) | 2.39 µM (inactive) | 4.83 µM (inactive) | 17.8 µM (inactive) | 11.2 µM (inactive) | 9.93 µM (inactive) | 14.1 µM (inactive) | 6.62 µM (inactive) |
| COC(=O)C(Cc1c[nH]c2ccccc12)NC(=O)c1ccc(-c2ccc(Cl)cc2Cl)o1 (stereo not given) | > 100 µM (inactive) | 24.4 µM (inactive) | 21.6 µM (inactive) | 16 µM (inactive) | 42.7 µM (inactive) | 17.5 µM (inactive) | 45.4 µM (inactive) | 38.3 µM (inactive) | 52.7 µM | 54.1 µM (inactive) | 60 µM (inactive) | 42.7 µM (inactive) | 34.9 µM (inactive) | 26 µM (inactive) | 22.3 µM (inactive) | > 100 µM (inactive) | 77.8 µM (inactive) | 7.96 µM (inactive) | 21.7 µM (inactive) | 18.4 µM (inactive) |
| CCOC(=O)CCC(NC(=O)c1ccc(OCc2ccc3nc(-c4ccccc4)c(Cl)nc3c2)cc1)C(=O)OCC (stereo not given) | 17.3 µM (inactive) | 27.4 µM (inactive) | > 31.6 µM (inactive) | 18.9 µM (inactive) | > 69 µM (inactive) | 15.6 µM (inactive) | > 31.6 µM (inactive) | 16.4 µM (inactive) | > 31.6 µM | 14.2 µM (inactive) | > 31.6 µM (inactive) | 18.4 µM (inactive) | 19.5 µM (inactive) | 3.88 µM (inactive) | > 31.6 µM (inactive) | 14.9 µM (inactive) | 16.7 µM (inactive) | 7.4 µM (inactive) | 15.8 µM (inactive) | > 31.6 µM (inactive) |
| Oc1c(-c2ccccc2)sc2ccccc12 | 34.3 µM (inactive) | 33.3 µM (inactive) | 19.1 µM (inactive) | 8.63 µM (inactive) | 0.836 µM (active) | 21.9 µM (inactive) | 24.9 µM (inactive) | 37.9 µM (inactive) | 31.9 µM | 31.6 µM (inactive) | 25.8 µM (inactive) | 29.4 µM (inactive) | 31.9 µM (inactive) | 13.7 µM (inactive) | 18.7 µM (inactive) | 43.9 µM (inactive) | 34 µM (inactive) | 18.7 µM (inactive) | 44.5 µM (inactive) | 17.1 µM (inactive) |
| CC[N+]1(C)CCC(O)(c2ccc(Cl)c(Cl)c2)C(C(=O)c2ccc(Cl)c(Cl)c2)C1 (stereo not given) | > 10 µM (inactive) | > 10 µM (inactive) | > 10 µM (inactive) | > 10 µM (inactive) | > 10 µM (inactive) | > 10 µM (inactive) | > 10 µM (inactive) | > 10 µM (inactive) | > 10 µM | > 10 µM (inactive) | > 10 µM (inactive) | > 10 µM (inactive) | > 10 µM (inactive) | > 10 µM (inactive) | > 10 µM (inactive) | > 10 µM (inactive) | > 10 µM (inactive) | > 10 µM (inactive) | > 10 µM (inactive) | > 10 µM (inactive) |
| O=[N+]([O-])/C(C(Cl)=C(Cl)Cl)=C(/Nc1ccccc1)Sc1ccccc1 | 17.5 µM (inactive) | 28.5 µM (inactive) | 18.4 µM (inactive) | 32.6 µM (inactive) | 13.5 µM (inactive) | 32.8 µM (inactive) | 14 µM (inactive) | 19.7 µM (inactive) | 19.8 µM | 17.7 µM (inactive) | 18.2 µM (inactive) | 14.6 µM (inactive) | 23.4 µM (inactive) | 20.6 µM (inactive) | 18.5 µM (inactive) | 40.4 µM (inactive) | 24.4 µM (inactive) | 18.5 µM (inactive) | 24.9 µM (inactive) | 18.5 µM (inactive) |
| O=C1Nc2nccnc2C(=O)N2CCC[C@@H]12 | > 100 µM (inactive) | > 100 µM (inactive) | > 100 µM (inactive) | > 100 µM (inactive) | > 100 µM (inactive) | > 100 µM (inactive) | > 100 µM (inactive) | > 100 µM (inactive) | > 100 µM | > 100 µM (inactive) | > 100 µM (inactive) | > 100 µM (inactive) | > 100 µM (inactive) | > 100 µM (inactive) | > 100 µM (inactive) | > 100 µM (inactive) | > 100 µM (inactive) | > 100 µM (inactive) | > 100 µM (inactive) | > 100 µM (inactive) |
| NC(=O)C1CCN(Cc2c(Cl)c(Cl)c(CN3CCC(C(N)=O)CC3)c(Cl)c2Cl)CC1 | 43.9 µM (inactive) | > 100 µM (inactive) | > 100 µM (inactive) | > 100 µM (inactive) | > 100 µM (inactive) | 67.1 µM (inactive) | 63.5 µM (inactive) | > 100 µM (inactive) | > 100 µM | > 100 µM (inactive) | > 100 µM (inactive) | 34.8 µM (inactive) | > 100 µM (inactive) | > 100 µM (inactive) | > 100 µM (inactive) | 49.9 µM (inactive) | > 100 µM (inactive) | > 100 µM (inactive) | 28.4 µM (inactive) | > 100 µM (inactive) |
| O=C1c2cc3ncsc3cc2C(=O)c2c(O)ccc(O)c21 | > 100 µM (inactive) | > 100 µM (inactive) | > 100 µM (inactive) | > 100 µM (inactive) | > 100 µM (inactive) | > 100 µM (inactive) | > 100 µM (inactive) | > 100 µM (inactive) | > 100 µM | > 100 µM (inactive) | > 100 µM (inactive) | > 100 µM (inactive) | > 100 µM (inactive) | > 100 µM (inactive) | > 100 µM (inactive) | > 100 µM (inactive) | > 100 µM (inactive) | > 100 µM (inactive) | > 100 µM (inactive) | > 100 µM (inactive) |
| O=C1c2cccc3cccc(c23)C(=O)N1CCCNCCCNCCCCNCCCNCCCN1C(=O)c2cccc3cccc(c23)C1=O | 2.28 µM (inactive) | 0.449 µM (active) | 1.9 µM (inactive) | 1.33 µM (inactive) | 12.9 µM (inactive) | 5.05 µM (inactive) | 13.1 µM (inactive) | 2.83 µM (inactive) | 12.8 µM | 4.93 µM (inactive) | 2.74 µM (inactive) | 1.84 µM (inactive) | 2.67 µM (inactive) | 3.25 µM (inactive) | 1.67 µM (inactive) | 1.68 µM (inactive) | 14.7 µM (inactive) | 3.23 µM (inactive) | 3.52 µM (inactive) | 3.52 µM (inactive) |
| O=C(/C=C\c1ccc(-c2ccccc2)cc1)c1cccs1 | > 59.2 µM (inactive) | 3.56 µM (inactive) | 56.4 µM (inactive) | 3.23 µM (inactive) | 35.7 µM (inactive) | > 69.2 µM (inactive) | 16.6 µM (inactive) | > 54.2 µM (inactive) | 7.74 µM | 6.44 µM (inactive) | 4.42 µM (inactive) | 5.09 µM (inactive) | > 79.6 µM (inactive) | 3.7 µM (inactive) | 27.4 µM (inactive) | 9.59 µM (inactive) | 26.7 µM (inactive) | > 100 µM (inactive) | 7.18 µM (inactive) | > 28.4 µM (inactive) |
| COc1ccc(C2c3c(-c4ccccc4)nn(-c4ccccc4)c3Oc3ncn(N)c(=N)c32)cc1OC (stereo not given) | 2.83 µM (inactive) | 1.84 µM (inactive) | 1.71 µM (inactive) | 2.73 µM (inactive) | 1.86 µM (inactive) | 2.33 µM (inactive) | 1.68 µM (inactive) | 2.45 µM (inactive) | 1.84 µM | 2.1 µM (inactive) | 1.83 µM (inactive) | 4.53 µM (inactive) | 2.24 µM (inactive) | 3.82 µM (inactive) | 1.67 µM (inactive) | 1.97 µM (inactive) | 2.21 µM (inactive) | 1.95 µM (inactive) | 1.69 µM (inactive) | 1.74 µM (inactive) |
| CCC1(O)C(=O)OCc2c1cc1n(c2=O)Cc2cc3ccccc3nc2-1 (stereo not given) | 0.0143 µM (active) | 0.0405 µM (active) | < 0.0403 µM (active) | 0.048 µM (active) | < 0.01 µM (active) | 0.12 µM (active) | 0.0235 µM (active) | 0.504 µM (active) | 0.239 µM | 0.0653 µM (active) | 0.221 µM (active) | 0.0261 µM (active) | 0.0221 µM (active) | 0.0455 µM (active) | 0.048 µM (active) | 7.73 µM (inactive) | 0.0444 µM (active) | 2.03 µM (inactive) | 0.0157 µM (active) | 0.895 µM (active) |
| CCc1nc(N)nc(N)c1-c1ccc(Cl)c(/N=C/N(C)C)c1 | 58.9 µM (inactive) | 57.8 µM (inactive) | 5.22 µM (inactive) | 54.3 µM (inactive) | 53.8 µM (inactive) | > 90.4 µM (inactive) | > 100 µM (inactive) | 72.3 µM (inactive) | 10.4 µM | 44.4 µM (inactive) | 61.7 µM (inactive) | 54.6 µM (inactive) | 15.3 µM (inactive) | 6.03 µM (inactive) | 10.3 µM (inactive) | > 100 µM (inactive) | > 93.1 µM (inactive) | 25.9 µM (inactive) | 45.3 µM (inactive) | 41.2 µM (inactive) |
